target: T1, CD73 (Homo sapiens, UniProt P21589); assay: Biochemical assay of CD73 inhibition (Malachite Green); conditions: CD73 0.3208 nM, AMP 15 μM, Tris-HCl pH 7.4, Malachite Green absorbance readout; read-out: CD73_Biochem
T1 sequence (P21589 27-549): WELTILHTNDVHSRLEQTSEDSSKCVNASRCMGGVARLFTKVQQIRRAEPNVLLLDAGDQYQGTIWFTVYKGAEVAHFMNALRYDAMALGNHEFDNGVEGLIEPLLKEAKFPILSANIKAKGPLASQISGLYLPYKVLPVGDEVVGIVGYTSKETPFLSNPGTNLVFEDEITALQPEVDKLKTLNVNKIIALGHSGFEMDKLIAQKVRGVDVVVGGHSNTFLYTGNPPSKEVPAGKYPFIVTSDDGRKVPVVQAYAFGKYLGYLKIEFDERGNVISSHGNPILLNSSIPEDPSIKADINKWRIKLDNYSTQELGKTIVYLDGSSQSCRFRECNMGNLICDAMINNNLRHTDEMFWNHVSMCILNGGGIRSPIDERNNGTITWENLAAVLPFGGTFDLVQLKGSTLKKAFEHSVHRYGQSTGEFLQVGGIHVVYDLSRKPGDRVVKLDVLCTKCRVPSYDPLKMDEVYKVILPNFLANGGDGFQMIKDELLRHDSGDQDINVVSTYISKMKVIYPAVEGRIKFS
Method: Example A1: Biochemical Assay
Assay Reaction Conditions
• Assay Volume: 70 μl • Reaction Volume: 50 μl • CD73: 0.3208 nM • AMP:15 μM • Assay Buffer: 2 5 mM Tris-HCL, pH 7.4, 0.01% Brij-35, 0.01% BSA, 5 mM MgCl2 Assay Procedure:
Made dose titration of testing compounds in assay buffer, 10 points 1/2 log titrations in duplicates starting at 100 μM.
Added 25 µl of CD73 to each well for a final concentration of […].
Incubated at RT for 15 min.
Added 25 µl of AMP to each well for a final concentration of 15 μM.
Incubated at RT for 10 min.
Added […] of Malachite Green Reagent A, incubate at RT for 10 min.
Added […] of Malachite Green Reagent B, incubate at RT for 45 min.
Read the Absorbance on Envision plate reader using excitation filter: Cy5 […].
The ability of the compounds disclosed herein to inhibit CD73 activity was quantified and the respective IC50 values were determined. Table 2 provides the biochemical IC50 values of compounds disclosed herein.

IC50 [nM] | Compound
≤ 10 | COCCOCC(COCc1nnn[nH]1)(OC[C@H]1O[C@@H](n2ncc3c(NC4CCCC4)nc(Cl)nc32)[C@H](O)[C@@H]1O)P(=O)(O)O (single isomer, unassigned) [Example 1]
≤ 10 | O=P(O)(O)[C@@](CO)(Cc1nn[nH]n1)OC[C@H]1O[C@@H](n2ncc3c(NCc4ccccc4Cl)nc(Cl)nc32)[C@H](O)[C@@H]1O (single isomer, unassigned) [Example 3]
10 to 100 | O=P(O)(O)[C@](CO)(Cc1nn[nH]n1)OC[C@H]1O[C@@H](n2ncc3c(NCc4ccccc4Cl)nc(Cl)nc32)[C@H](O)[C@@H]1O (single isomer, unassigned) [Example 4]
≤ 10 | O=P(O)(O)C(COCc1nnn[nH]1)(Cc1nnn[nH]1)OC[C@H]1O[C@@H](n2ncc3c(NC4CCCC4)nc(Cl)nc32)[C@H](O)[C@@H]1O (stereo in doubt) [Example 41, ((S)-1-((1H-tetrazol-5-yl)methoxy)-2-(((2R,3S,4R,5R)-5-(6-chloro-4-(cyclopentylamino)-1H-pyrazolo[3,4-d]pyrimidin-1-yl)-3,4-dihydroxytetrahydrofuran-2-yl)methoxy)-3-(1H-tetrazol-5-yl)propan-2-yl)phosphonic acid]
≤ 10 | O=P(O)(O)C(COCc1nnn[nH]1)(Cc1nnn[nH]1)OC[C@H]1O[C@@H](n2ncc3c(NC4CCCC4)nc(Cl)nc32)[C@H](O)[C@@H]1O (stereo in doubt) [Example 42, ((R)-1-((1H-tetrazol-5-yl)methoxy)-2-(((2R,3S,4R,5R)-5-(6-chloro-4-(cyclopentylamino)-1H-pyrazolo[3,4-d]pyrimidin-1-yl)-3,4-dihydroxytetrahydrofuran-2-yl)methoxy)-3-(1H-tetrazol-5-yl)propan-2-yl)phosphonic acid]
≤ 10 | O=P(O)(O)C(COCc1nnn[nH]1)(COCC1CC1)OC[C@H]1O[C@@H](n2ncc3c(NC4CCCC4)nc(Cl)nc32)[C@H](O)[C@@H]1O (stereo in doubt) [Example 44, ((R)-1-((1H-tetrazol-5-yl)methoxy)-2-(((2R,3S,4R,5R)-5-(6-chloro-4-(cyclopentylamino)-1H-pyrazolo[3,4-d]pyrimidin-1-yl)-3,4-dihydroxytetrahydrofuran-2-yl)methoxy)-3-(cyclopropylmethoxy)propan-2-yl)phosphonic acid]
≤ 10 | O=P(O)(O)C(COCc1nnn[nH]1)(COCC1CC1)OC[C@H]1O[C@@H](n2ncc3c(NC4CCCC4)nc(Cl)nc32)[C@H](O)[C@@H]1O (stereo in doubt) [Example 45, ((S)-1-((1H-tetrazol-5-yl)methoxy)-2-(((2R,3S,4R,5R)-5-(6-chloro-4-(cyclopentylamino)-1H-pyrazolo[3,4-d]pyrimidin-1-yl)-3,4-dihydroxytetrahydrofuran-2-yl)methoxy)-3-(cyclopropylmethoxy)propan-2-yl)phosphonic acid]
≤ 10 | O=P(O)(O)C(CO)(CCCc1nn[nH]n1)OC[C@H]1O[C@@H](n2ncc3c(NC4CCCC4)nc(Cl)nc32)[C@H](O)[C@@H]1O (stereo partly drawn) [Example 5, (2-(((2R,3S,4R,5R)-5-(6-chloro-4-(cyclopentylamino)-1H-pyrazolo[3,4-d]pyrimidin-1-yl)-3,4-dihydroxytetrahydrofuran-2-yl)methoxy)-1-hydroxy-5-(2H-tetrazol-5-yl)pentan-2-yl)phosphonic acid]
≤ 10 | COCC(CCC(=O)O)(OC[C@H]1O[C@@H](n2ncc3c(NC4CCCC4)nc(Cl)nc32)[C@H](O)[C@@H]1O)P(=O)(O)O (stereo partly drawn) [Example 6, 4-(((2R,3S,4R,5R)-5-(6-chloro-4-(cyclopentylamino)-1H-pyrazolo[3,4-d]pyrimidin-1-yl)-3,4-dihydroxytetrahydrofuran-2-yl)methoxy)-5-methoxy-4-phosphonopentanoic acid]
≤ 10 | COC[C@@](CC(=O)NO)(OC[C@H]1O[C@@H](n2ncc3c(NC4CCCC4)nc(Cl)nc32)[C@H](O)[C@@H]1O)P(=O)(O)O [Example 7, ((S)-2-(((2R,3S,4R,5R)-5-(6-chloro-4-(cyclopentylamino)-1H-pyrazolo[3,4-d]pyrimidin-1-yl)-3,4-dihydroxytetrahydrofuran-2-yl)methoxy)-4-(hydroxyamino)-1-methoxy-4-oxobutan-2-yl)phosphonic acid]
≤ 10 | COC[C@](CC(=O)NO)(OC[C@H]1O[C@@H](n2ncc3c(NC4CCCC4)nc(Cl)nc32)[C@H](O)[C@@H]1O)P(=O)(O)O [Example 8, ((R)-2-(((2R,3S,4R,5R)-5-(6-chloro-4-(cyclopentylamino)-1H-pyrazolo[3,4-d]pyrimidin-1-yl)-3,4-dihydroxytetrahydrofuran-2-yl)methoxy)-4-(hydroxyamino)-1-methoxy-4-oxobutan-2-yl)phosphonic acid]
≤ 10 | COC[C@](Cc1nn[nH]n1)(OC[C@H]1O[C@@H](n2ncc3c(NC4CCC4)nc(CO)nc32)[C@H](O)[C@@H]1O)P(=O)(O)O [Example 9, ((R)-2-(((2R,3S,4R,5R)-5-(4-(cyclobutylamino)-6-(hydroxymethyl)-1H-pyrazolo[3,4-d]pyrimidin-1-yl)-3,4-dihydroxytetrahydrofuran-2-yl)methoxy)-1-methoxy-3-(2H-tetrazol-5-yl)propan-2-yl)phosphonic acid]
10 to 100 | COC[C@](COCC(=O)O)(OC[C@H]1O[C@@H](n2ncc3c(NC4CCCC4)nc(Cl)nc32)[C@H](O)[C@@H]1O)P(=O)(O)O [Example 10]
≤ 10 | COCC(CC(=O)NO)(OC[C@H]1O[C@@H](n2ncc3c(NC4CCCC4)nc(Cl)nc32)[C@H](O)[C@@H]1O)P(=O)(O)O (stereo partly drawn) [Example 11, (2-(((2R,3S,4R,5R)-5-(6-chloro-4-(cyclopentylamino)-1H-pyrazolo[3,4-d]pyrimidin-1-yl)-3,4-dihydroxytetrahydrofuran-2-yl)methoxy)-4-(hydroxyamino)-1-methoxy-4-oxobutan-2-yl)phosphonic acid]
≤ 10 | COCC(CC(=O)NS(C)(=O)=O)(OC[C@H]1O[C@@H](n2ncc3c(NC4CCCC4)nc(Cl)nc32)[C@H](O)[C@@H]1O)P(=O)(O)O (stereo partly drawn) [Example 12, (2-(((2R,3S,4R,5R)-5-(6-chloro-4-(cyclopentylamino)-1H-pyrazolo[3,4-d]pyrimidin-1-yl)-3,4-dihydroxytetrahydrofuran-2-yl)methoxy)-1-methoxy-4-(methylsulfonamido)-4-oxobutan-2-yl)phosphonic acid]
10 to 100 | O=P(O)(O)C(CO)(Cc1c[nH]nn1)OC[C@H]1O[C@@H](n2ncc3c(NC4CCCC4)nc(Cl)nc32)[C@H](O)[C@@H]1O (stereo partly drawn) [Example 13, (2-(((2R,3S,4R,5R)-5-(6-chloro-4-(cyclopentylamino)-1H-pyrazolo[3,4-d]pyrimidin-1-yl)-3,4-dihydroxytetrahydrofuran-2-yl)methoxy)-1-hydroxy-3-(1H-1,2,3-triazol-4-yl)propan-2-yl)phosphonic acid]
≤ 10 | C[C@H]1CCC[C@@H]1Nc1nc(Cl)nc2c1cnn2[C@@H]1O[C@H](COC(CO)(CO)P(=O)(O)O)[C@@H](O)[C@H]1O [Example 14, (2-(((2R,3S,4R,5R)-5-(6-chloro-4-(((1S,2S)-2-methylcyclopentyl)amino)-1H-pyrazolo[3,4-d]pyrimidin-1-yl)-3,4-dihydroxytetrahydrofuran-2-yl)methoxy)-1,3-dihydroxypropan-2-yl)phosphonic acid]
10 to 100 | COCC(OC[C@H]1O[C@@H](n2ncc3c(NC4CCCC4)nc(Cl)nc32)[C@H](O)[C@@H]1O)(C(=O)N(C)C)P(=O)(O)O (stereo partly drawn) [Example 15, (2-(((2R,3S,4R,5R)-5-(6-chloro-4-(cyclopentylamino)-1H-pyrazolo[3,4-d]pyrimidin-1-yl)-3,4-dihydroxytetrahydrofuran-2-yl)methoxy)-1-(dimethylamino)-3-methoxy-1-oxopropan-2-yl)phosphonic acid]
≤ 10 | CC(C)CNc1nc(Cl)nc2c1cnn2[C@@H]1O[C@H](COC(CO)(Cc2nn[nH]n2)P(=O)(O)O)[C@@H](O)[C@H]1O (stereo partly drawn) [Example 16, (2-(((2R,3S,4R.,5R)-5-(6-chloro-4-(isobutylamino)-1H-pyrazolo[3,4-d]pyrimidin-1-yl)-3,4-dihydroxytetrahydrofuran-2-yl)methoxy)-1-hydroxy-3-(2H-tetrazol-5-yl)propan-2-yl)phosphonic acid]
≤ 10 | O=P(O)(O)C(CO)(Cc1nn[nH]n1)OC[C@H]1O[C@@H](n2ncc3c(NC4CCC4)nc(CO)nc32)[C@H](O)[C@@H]1O (stereo partly drawn) [Example 17, (2-(((2R,3S,4R,5R)-5-(4-(cyclobutylamino)-6-(hydroxymethyl)-1H-pyrazolo[3,4-d]pyrimidin-1-yl)-3,4-dihydroxytetrahydrofuran-2-yl)methoxy)-1-hydroxy-3-(2H-tetrazol-5-yl)propan-2-yl)phosphonic acid]
